Reference: ChEMBL document CHEMBL5154791, “Optimization of a Pyrimidinone Series for Selective Inhibition of Ca2+/Calmodulin-Stimulated Adenylyl Cyclase 1 Activity for the Treatment of Chronic Pain” (J Med Chem, 2022)
Converted amounts (≈) assume the structure as drawn. The source made the active and inactive calls. The rule behind the calls is not given here.

Tests used:
Adenylate cyclase type 8 [1] = biological target: T1, Adenylate cyclase type 8 (Homo sapiens, UniProt P40145); assay: Inhibition of Ca2+/ CAM stimulated human AC8 activity expressed in AC3 and AC6-knockout HEK293 cells assessed as A23187 stimulated cAMP accumulation incubated for 30 mins followed by […] in presence of IBMX for 1 hr by HTRF assay relative to control; type: cell-based; set-up: concentration or dose not given beside the values; conditions: time 90.0 min
T1 sequence (P40145 whole entry): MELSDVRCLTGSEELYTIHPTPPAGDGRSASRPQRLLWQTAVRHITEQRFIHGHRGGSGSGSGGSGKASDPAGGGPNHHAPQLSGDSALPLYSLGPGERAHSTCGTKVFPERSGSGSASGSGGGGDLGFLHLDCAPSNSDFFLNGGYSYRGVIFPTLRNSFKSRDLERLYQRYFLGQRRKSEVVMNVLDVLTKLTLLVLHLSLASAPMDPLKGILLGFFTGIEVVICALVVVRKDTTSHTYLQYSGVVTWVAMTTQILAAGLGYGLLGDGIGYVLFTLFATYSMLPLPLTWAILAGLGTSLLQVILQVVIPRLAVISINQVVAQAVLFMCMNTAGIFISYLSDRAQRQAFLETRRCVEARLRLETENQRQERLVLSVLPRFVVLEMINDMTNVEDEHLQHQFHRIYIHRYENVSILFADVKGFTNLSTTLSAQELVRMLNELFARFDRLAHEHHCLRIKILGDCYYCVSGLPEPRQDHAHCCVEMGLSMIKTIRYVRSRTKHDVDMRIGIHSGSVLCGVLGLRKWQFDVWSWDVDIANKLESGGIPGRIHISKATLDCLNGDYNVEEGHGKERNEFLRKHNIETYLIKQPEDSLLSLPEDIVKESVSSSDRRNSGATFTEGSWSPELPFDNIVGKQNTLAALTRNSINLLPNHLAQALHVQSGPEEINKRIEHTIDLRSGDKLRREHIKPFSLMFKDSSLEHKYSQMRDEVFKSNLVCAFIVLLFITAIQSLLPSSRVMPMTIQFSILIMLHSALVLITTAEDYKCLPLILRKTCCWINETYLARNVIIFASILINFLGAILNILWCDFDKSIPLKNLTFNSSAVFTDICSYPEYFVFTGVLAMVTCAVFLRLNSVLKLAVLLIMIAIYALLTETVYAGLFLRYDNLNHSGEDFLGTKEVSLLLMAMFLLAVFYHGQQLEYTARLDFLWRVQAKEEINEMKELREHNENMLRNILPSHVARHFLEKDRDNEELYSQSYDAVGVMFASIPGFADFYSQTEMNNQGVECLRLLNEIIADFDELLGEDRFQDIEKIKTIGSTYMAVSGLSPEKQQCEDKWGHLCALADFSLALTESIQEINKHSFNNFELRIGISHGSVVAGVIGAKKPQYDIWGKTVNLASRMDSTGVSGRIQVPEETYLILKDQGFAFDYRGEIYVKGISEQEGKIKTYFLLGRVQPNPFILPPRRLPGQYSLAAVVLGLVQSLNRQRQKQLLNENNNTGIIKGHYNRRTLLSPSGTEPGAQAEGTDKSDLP

Adenylate cyclase type 8 [2] = biological target: T1, Adenylate cyclase type 8; assay: Inhibition of Ca2+/ CAM stimulated human AC8 activity expressed in AC3 and AC6-knockout HEK293 cells assessed as A23187 stimulated cAMP accumulation incubated for 30 mins followed by […] in presence of IBMX for 1 hr by HTRF assay; type: cell-based
Adenylate cyclase type 1 = Adenylate cyclase type 1 (Homo sapiens, UniProt Q08828)
Chain of Adenylate cyclase type 1 (Q08828 whole entry): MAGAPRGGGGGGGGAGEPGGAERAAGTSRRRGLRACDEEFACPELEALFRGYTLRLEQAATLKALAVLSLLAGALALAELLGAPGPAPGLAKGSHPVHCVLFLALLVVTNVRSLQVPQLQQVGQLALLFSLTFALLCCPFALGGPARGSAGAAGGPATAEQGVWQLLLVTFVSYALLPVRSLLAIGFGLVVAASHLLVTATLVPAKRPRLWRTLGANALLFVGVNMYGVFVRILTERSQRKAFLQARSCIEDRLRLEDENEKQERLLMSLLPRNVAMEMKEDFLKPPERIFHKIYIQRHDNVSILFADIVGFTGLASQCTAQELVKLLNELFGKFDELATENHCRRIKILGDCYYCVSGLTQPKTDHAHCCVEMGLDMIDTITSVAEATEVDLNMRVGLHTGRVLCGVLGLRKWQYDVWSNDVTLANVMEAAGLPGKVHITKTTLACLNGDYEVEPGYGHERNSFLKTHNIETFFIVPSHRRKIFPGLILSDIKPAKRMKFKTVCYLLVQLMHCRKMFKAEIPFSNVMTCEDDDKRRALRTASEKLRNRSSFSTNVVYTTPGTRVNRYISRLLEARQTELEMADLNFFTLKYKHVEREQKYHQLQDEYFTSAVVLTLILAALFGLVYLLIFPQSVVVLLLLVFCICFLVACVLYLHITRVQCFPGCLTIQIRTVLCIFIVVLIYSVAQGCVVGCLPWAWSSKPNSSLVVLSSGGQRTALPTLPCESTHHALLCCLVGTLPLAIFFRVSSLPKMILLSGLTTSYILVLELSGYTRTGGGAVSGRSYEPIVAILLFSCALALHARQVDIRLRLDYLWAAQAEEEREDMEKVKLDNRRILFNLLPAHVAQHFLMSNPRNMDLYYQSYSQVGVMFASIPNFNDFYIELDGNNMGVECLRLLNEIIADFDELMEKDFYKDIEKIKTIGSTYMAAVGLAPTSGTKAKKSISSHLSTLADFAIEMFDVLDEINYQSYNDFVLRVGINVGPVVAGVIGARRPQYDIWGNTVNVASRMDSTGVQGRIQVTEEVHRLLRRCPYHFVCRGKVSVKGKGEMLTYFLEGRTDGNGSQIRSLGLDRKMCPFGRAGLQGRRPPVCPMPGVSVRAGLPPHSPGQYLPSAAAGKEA
Description: Inhibition of Ca2+/ CAM stimulated human AC1 activity expressed in AC3 and AC6-knockout HEK293 cells assessed as A23187 stimulated cAMP accumulation incubated for 30 mins followed by A2318 stimulation in presence of IBMX for 1 hr by HTRF assay

[3] = biological target: Vascular endothelial growth factor receptor 2 (Homo sapiens) (UniProt P35968); assay: Inhibition of human recombinant VEGFR2 assessed as inhibition of phosphorylation activity at 10 uM using 33P-labeleled peptide substrate by radiometric scintillation counting assay relative to control
HEK293 = assay: Cytotoxicity against HEK293 cells assessed as reduction in cell viability at 30 uM incubated for 1 hr by cell titer glo assay; type: toxicity, cell-based; conditions: human, hek293, 1 h
Adenylate cyclase type 8 [4] = biological target: T1, Adenylate cyclase type 8; assay: Inhibition of Ca2+/ CAM stimulated human AC8 expressed in AC3 and AC6-knockout HEK293 cells assessed as A23187 stimulated cAMP accumulation at 10 uM incubated for 30 mins followed by […] in presence of IBMX for 1 hr by HTRF assay relative to control; type: cell-based; conditions: time 90.0 min
[5] = biological target: Insulin receptor (Homo sapiens) (UniProt P06213); assay: Inhibition of human recombinant IRK assessed as inhibition of phosphorylation activity at 10 uM using 33P-labeleled peptide substrate by radiometric scintillation counting assay relative to control
Chain of Insulin receptor (Homo sapiens) (P06213 28-758 limits assumed): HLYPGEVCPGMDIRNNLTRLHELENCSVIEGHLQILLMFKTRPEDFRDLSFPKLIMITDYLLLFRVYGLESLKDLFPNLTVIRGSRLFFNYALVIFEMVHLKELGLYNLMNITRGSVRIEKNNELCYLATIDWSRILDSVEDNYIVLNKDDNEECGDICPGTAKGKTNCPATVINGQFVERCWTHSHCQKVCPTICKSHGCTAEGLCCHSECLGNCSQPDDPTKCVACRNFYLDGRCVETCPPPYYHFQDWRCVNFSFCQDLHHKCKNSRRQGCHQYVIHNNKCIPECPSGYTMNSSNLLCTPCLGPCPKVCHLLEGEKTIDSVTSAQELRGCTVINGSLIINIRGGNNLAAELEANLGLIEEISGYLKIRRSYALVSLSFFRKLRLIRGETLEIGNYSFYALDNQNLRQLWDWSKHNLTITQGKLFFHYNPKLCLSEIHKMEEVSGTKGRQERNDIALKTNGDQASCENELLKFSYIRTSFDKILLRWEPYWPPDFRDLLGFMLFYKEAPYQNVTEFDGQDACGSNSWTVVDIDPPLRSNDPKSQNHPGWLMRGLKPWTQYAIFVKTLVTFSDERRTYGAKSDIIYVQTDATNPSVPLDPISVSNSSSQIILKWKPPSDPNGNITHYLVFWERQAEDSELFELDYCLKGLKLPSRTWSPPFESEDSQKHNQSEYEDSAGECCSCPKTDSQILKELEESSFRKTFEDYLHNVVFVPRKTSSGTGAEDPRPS
Chain of Insulin receptor (Homo sapiens) (P06213 763-1382 limits assumed): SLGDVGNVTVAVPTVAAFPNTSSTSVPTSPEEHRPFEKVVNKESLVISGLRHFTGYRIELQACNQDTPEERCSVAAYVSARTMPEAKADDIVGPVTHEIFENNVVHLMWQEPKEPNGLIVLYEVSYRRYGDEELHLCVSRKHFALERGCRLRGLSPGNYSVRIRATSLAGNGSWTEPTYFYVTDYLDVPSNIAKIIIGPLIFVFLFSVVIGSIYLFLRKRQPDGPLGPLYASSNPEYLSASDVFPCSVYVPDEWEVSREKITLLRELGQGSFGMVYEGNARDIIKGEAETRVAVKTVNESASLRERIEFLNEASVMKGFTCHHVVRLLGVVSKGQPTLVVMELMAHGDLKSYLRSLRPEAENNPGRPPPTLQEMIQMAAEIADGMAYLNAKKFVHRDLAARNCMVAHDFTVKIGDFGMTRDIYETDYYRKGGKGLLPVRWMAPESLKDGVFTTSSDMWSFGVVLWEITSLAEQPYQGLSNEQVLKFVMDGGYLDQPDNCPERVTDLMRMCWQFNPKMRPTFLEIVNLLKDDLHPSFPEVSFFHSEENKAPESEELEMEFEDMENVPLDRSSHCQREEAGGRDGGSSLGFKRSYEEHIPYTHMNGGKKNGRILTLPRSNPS

[6] = biological target: 5-hydroxytryptamine receptor 2B (Homo sapiens, UniProt P41595); assay: Binding affinity to 5-HT2B receptor (unknown origin) assessed as displacement of radioligand at 10 uM by radioligand binding assay
Chain of 5-hydroxytryptamine receptor 2B (P41595 whole entry): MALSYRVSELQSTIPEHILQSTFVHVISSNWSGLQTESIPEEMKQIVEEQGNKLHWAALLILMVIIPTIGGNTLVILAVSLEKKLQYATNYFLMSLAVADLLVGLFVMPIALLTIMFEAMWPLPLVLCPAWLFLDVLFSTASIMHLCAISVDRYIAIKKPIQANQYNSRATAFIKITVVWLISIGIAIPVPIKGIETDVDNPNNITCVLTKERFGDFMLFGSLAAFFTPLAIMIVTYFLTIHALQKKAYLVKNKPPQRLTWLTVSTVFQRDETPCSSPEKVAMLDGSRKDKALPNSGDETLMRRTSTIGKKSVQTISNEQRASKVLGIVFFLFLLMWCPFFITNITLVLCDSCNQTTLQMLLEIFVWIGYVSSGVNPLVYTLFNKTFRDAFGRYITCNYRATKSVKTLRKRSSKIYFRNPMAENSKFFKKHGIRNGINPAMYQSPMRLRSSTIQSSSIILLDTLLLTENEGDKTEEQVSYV

[7] = Thermodynamic solubility of the compound in PBS at pH 7.4; type: physicochemical; conditions: read-out: Therm_solubility
Mus musculus [8] = assay: Antiallodynic activity against CFA-induced C57BL/6N mouse inflammatory pain model assessed as inhibition of inflammatory mechanical allodynia at 5.6 mg/kg, ip measured at 1 hr post treatment by von Frey test; type: functional, organism-based
[9] = Metabolic stability in human liver microsomes assessed as compound remaining after 30 mins; type: ADME, Microsome; conditions: 0.5 h
[10] = Intrinsic clearance in human liver microsomes; type: ADME, Microsome
[11] = Metabolic stability in human liver microsomes assessed as compound remaining after 15 mins; type: ADME, Microsome; conditions: 0.25 h
[12] = Apparent permeability in MDCK-II cells; type: ADME, cell-based, Canis lupus familiaris; conditions: dog
[13] = biological target: Voltage-gated inwardly rectifying potassium channel KCNH2 (Homo sapiens, UniProt Q12809); assay: Displacement of [3H]astemizole from human ERG expressed in HEK293 cell membrane at 10 uM by Radiometric displacement assay relative to control; type: toxicity, cell membranes; conditions: hek293, 10 µM
[14] = Half life in human liver microsomes; type: ADME, Microsome
CYP2C19 = CYP2C19 (Homo sapiens, UniProt P33261); assay: Inhibition of CYP2C19 (unknown origin) at 10 uM relative to control; type: ADME
CYP2C9 = CYP2C9 (Homo sapiens, UniProt P11712); assay: Inhibition of CYP2C9 (unknown origin) at 10 uM relative to control; type: ADME
Chain of CYP2C9 (P11712 whole entry): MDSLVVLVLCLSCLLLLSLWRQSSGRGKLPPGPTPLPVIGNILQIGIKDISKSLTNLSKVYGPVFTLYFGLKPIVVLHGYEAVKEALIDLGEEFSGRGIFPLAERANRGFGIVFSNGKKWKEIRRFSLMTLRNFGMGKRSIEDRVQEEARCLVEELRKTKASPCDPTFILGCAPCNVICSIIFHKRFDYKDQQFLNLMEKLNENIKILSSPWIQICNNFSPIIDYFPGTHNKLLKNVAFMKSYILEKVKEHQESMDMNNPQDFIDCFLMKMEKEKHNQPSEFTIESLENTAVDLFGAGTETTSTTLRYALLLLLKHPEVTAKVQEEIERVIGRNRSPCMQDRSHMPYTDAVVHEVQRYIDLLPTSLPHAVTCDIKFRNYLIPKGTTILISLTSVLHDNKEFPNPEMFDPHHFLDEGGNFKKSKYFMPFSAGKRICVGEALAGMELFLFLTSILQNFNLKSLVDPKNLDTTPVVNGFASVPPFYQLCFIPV

CYP1A2 = biological target: T2, CYP1A2 (Homo sapiens, UniProt P05177); assay: Inhibition of CYP1A2 (unknown origin) at 10 uM relative to control; type: ADME
T2 sequence (P05177 whole entry): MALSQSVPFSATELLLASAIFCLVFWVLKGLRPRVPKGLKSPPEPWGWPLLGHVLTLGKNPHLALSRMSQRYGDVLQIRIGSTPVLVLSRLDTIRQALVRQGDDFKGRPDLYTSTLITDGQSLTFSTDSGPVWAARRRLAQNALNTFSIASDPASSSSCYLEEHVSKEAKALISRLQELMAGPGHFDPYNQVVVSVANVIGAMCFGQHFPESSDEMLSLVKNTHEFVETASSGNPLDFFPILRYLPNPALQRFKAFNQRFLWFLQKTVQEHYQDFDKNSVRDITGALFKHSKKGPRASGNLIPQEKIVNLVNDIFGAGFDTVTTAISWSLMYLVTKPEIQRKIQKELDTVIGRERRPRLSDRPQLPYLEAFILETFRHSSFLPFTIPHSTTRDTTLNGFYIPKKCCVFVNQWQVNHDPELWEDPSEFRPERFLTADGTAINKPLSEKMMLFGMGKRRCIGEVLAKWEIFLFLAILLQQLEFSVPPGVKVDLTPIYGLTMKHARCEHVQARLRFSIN

CYP2D6 = CYP2D6 (Homo sapiens, UniProt P10635); assay: Inhibition of CYP2D6 (unknown origin) at 10 uM relative to control; type: ADME
[15] = Metabolic stability in human liver microsomes assessed as compound remaining after 45 mins; type: ADME, Microsome; conditions: 0.75 h
CYP3A4 = CYP3A4 (Homo sapiens, UniProt P08684); assay: Inhibition of CYP3A4 (unknown origin) at 10 uM relative to control; type: ADME
[16] = Metabolic stability in human liver microsomes assessed as compound remaining after 60 mins; type: ADME, Microsome; conditions: 1 h
Mus musculus [17] = assay: Antiallodynic activity against CFA-induced C57BL/6N mouse inflammatory pain model assessed as inhibition of inflammatory mechanical allodynia at 5.6 mg/kg, ip measured over 2 hrs post treatment by von Frey test; type: functional, organism-based

Structure (SMILES)	inhibition (Adenylate cyclase type 8 [1]) [%]	IC50 (Adenylate cyclase type 8 [2]) [µM]	IC50 (Adenylate cyclase type 1) [µM]	further results
CCc1cc(=O)[nH]c(-n2nc(C)cc2NC(=O)c2ccccc2C)n1	11	15.7	2.2	–
CCc1cc(=O)[nH]c(-n2nc(C)cc2NC(=O)c2ccc(OCOC)cc2)n1	–	> 30	4.3	–
CCc1cc(=O)[nH]c(-n2nc(C)cc2NC(=O)c2cccc(OC)c2)n1	5	9.6	1.42	–
CCc1cccc(C(=O)Nc2cc(C)nn2-c2nc(CC)cc(=O)[nH]2)c1	12	3.5	0.44	inhibition [3]: 28%; Activity (HEK293): Non-Toxic; inhibition (Adenylate cyclase type 8 [4]): Active; inhibition [5]: 57%; inhibition ([6]; filed as antagonist): 49%; solubility thermodynamic [7]: 10.8 µM (≈ 3.8 µg/mL)
CCc1cc(=O)[nH]c(-n2nc(C)cc2NC(=O)c2ccc(OC)cc2)n1	0	> 60	–	–
CCc1cc(=O)[nH]c(-n2nc(C)cc2NC(=O)c2cccc(C)c2)n1	27	2.7	0.41	Activity (HEK293): Non-Toxic; inhibition (Adenylate cyclase type 8 [4]): Active; Ki [6]: 0.9 µM; solubility thermodynamic [7]: 19.5 µM (≈ 6.58 µg/mL)
CCc1cc(=O)[nH]c(-n2nc(C)cc2NC(=O)Cc2ccccc2F)n1	–	3.4	16.3	–
CCc1cc(=O)[nH]c(-n2nc(C)cc2NC(=O)c2ccccn2)n1	46	2.8	–	–
CCc1cc(=O)[nH]c(-n2nc(C)cc2NC(=O)c2ccc(C(C)(C)C)cc2)n1	35	1.2	0.97	–
CCc1cc(=O)[nH]c(-n2nc(C)cc2NC(=O)c2cccc(C(F)(F)F)c2)n1	41	1.3	0.68	–
CCc1cc(=O)[nH]c(-n2nc(C)cc2NC(=O)c2ccc(F)cc2)n1	52	0.78	0.79	–
CCc1cc(=O)[nH]c(-n2nc(C)cc2NC(=O)c2cccc(Cl)c2)n1	48	1	0.47	–
CCc1cc(=O)[nH]c(-n2nc(C)cc2NC(=O)c2cccc(C)c2F)n1	9	> 60	0.57	–
CCc1cc(=O)[nH]c(-n2nc(C)cc2NC(=O)c2ccc(O)cc2)n1	–	> 60	> 60	–
CCc1cc(=O)[nH]c(-n2nc(C)cc2NC(=O)c2cc(C)cc(C)c2)n1	27	1.7	0.52	–
CCc1cc(=O)[nH]c(-n2nc(C)cc2NC(=O)c2ccc(Cl)cc2)n1	53	2.5	0.36	–
CCc1cc(=O)[nH]c(-n2nc(C)cc2NC(=O)c2cccc(-c3ccccc3)c2)n1	37	0.57	0.25	–
CCc1cc(=O)[nH]c(-n2nc(C)cc2NC(=O)c2ccc(N(C)C)cc2)n1	39	1	2.3	–
CCc1cc(=O)[nH]c(-n2nc(C)cc2NC(=O)c2cc(C)ccc2F)n1	–	–	–	Activity (HEK293): Non-Toxic; Activity (Mus musculus [8]): Active; Stability [9]: 67.4%; CLH [10]: 136.7 µL/min/mg; inhibition (Adenylate cyclase type 8 [4]): Active; Stability [11]: 88.3%; Papp [12]: 2.21 ×10⁻⁶ cm/s; inhibition [5]: 64%; inhibition (INH) [13]: 6%; t1/2 [14]: 51.2 min; inhibition at 10 µM (CYP2C19): 1.8%; inhibition at 10 µM (CYP2C9): -0.2%; inhibition at 10 µM (CYP1A2): 8.7%; inhibition at 10 µM (CYP2D6): 0.3%; Stability [15]: 57.5%; solubility thermodynamic [7]: 33.6 µM (≈ 11.9 µg/mL); inhibition at 10 µM (CYP3A4): -0.9%; Stability [16]: 44.5%

Structure (SMILES)	inhibition (Adenylate cyclase type 8 [1]) [%]	IC50 (Adenylate cyclase type 8 [2]) [µM]	IC50 (Adenylate cyclase type 1) [µM]	further results
CCc1cc(=O)[nH]c(-n2nc(C)cc2NC(=O)c2cccc(C(C)(C)C)c2)n1	25	0.38	0.88	–
CCc1cc(=O)[nH]c(-n2nc(C)cc2NC(C)=O)n1	–	10.6	> 30	–
CCc1cc(=O)[nH]c(-n2nc(C)cc2NC(=O)c2ccc(C)c(C)c2)n1	27	0.71	0.29	Activity (HEK293): Non-Toxic; inhibition (Adenylate cyclase type 8 [4]): Active; inhibition [5]: 4%; inhibition [6]: 32%; inhibition (INH) [13]: 11%; solubility thermodynamic [7]: 7.6 µM (≈ 2.67 µg/mL)
CCc1cc(=O)[nH]c(-n2nc(C)cc2NC(=O)c2cccc(SC)c2)n1	52	1.3	0.63	–
CCc1cc(=O)[nH]c(-n2nc(C)cc2NC(=O)c2ccccc2F)n1	46	1.9	1.4	Activity (HEK293): Non-Toxic; inhibition (Adenylate cyclase type 8 [4]): Active; Ki [6]: 1.3 µM
CCc1cc(=O)[nH]c(-n2nc(C)cc2NC(=O)c2cccc(F)c2)n1	55	1.6	1.4	–
CCc1cc(=O)[nH]c(-n2nc(C)cc2NC(=O)Cc2cccc(C)c2)n1	59	> 60	9.2	–
CN1CC[C@]23c4c5ccc(O)c4O[C@H]2[C@@H](O)C=C[C@H]3[C@H]1C5	–	–	–	Activity (Mus musculus [17]): Active
CCc1cc(=O)[nH]c(-n2nc(C)cc2NC(=O)c2ccc(-c3ccccc3)cc2)n1	32	0.7	0.77	–
CCc1cc(=O)[nH]c(-n2nc(C)cc2NC(=O)c2cccc(Br)c2)n1	15	2.1	0.61	–
CCc1ccc(C(=O)Nc2cc(C)nn2-c2nc(CC)cc(=O)[nH]2)cc1	19	6.6	0.39	–
CCc1cc(=O)[nH]c(-n2nc(C)cc2NC(=O)c2cccc(C(C)C)c2)n1	28	2.6	0.36	–
CCOc1cccc(C(=O)Nc2cc(C)nn2-c2nc(CC)cc(=O)[nH]2)c1	11	4.4	0.9	–
CCc1cc(=O)[nH]c(-n2nc(C)cc2NC(=O)c2cccc(C3CC3)c2)n1	17	1.9	0.81	–
CCc1cc(=O)[nH]c(-n2nc(C)cc2NC(=O)c2ccccc2CC)n1	21	> 60	3.1	–
CCc1cc(=O)[nH]c(-n2nc(C)cc2NC(=O)c2ccc(C)cc2)n1	27	> 60	0.67	–
CCc1cc(=O)[nH]c(-n2nc(C)cc2NC(=O)c2ccccc2)n1	0	35.9	2.8	–
CCc1cc(=O)[nH]c(-n2nc(C)cc2NC(=O)c2ccco2)n1	20	15.7	6.7	–
